Consider five compounds from patent US7485669B2, “Blockade of sodium channels by phenol derivatives” (B. Braun Melsungen AG, priority 2000, dated 2009).

SMILES strings stand for the structures. Read-outs that look alike come from different tables or passages of the source.

The Kd is the concentration at which binding is half-saturated. The term IC50 denotes the concentration needed to halve the response being measured.

The target in experiment [1] is T1, human skeletal muscle sodium channels (Homo sapiens, UniProt P35499).
T1 construct: expressed in transfected cells
T1 sequence (P35499 whole entry): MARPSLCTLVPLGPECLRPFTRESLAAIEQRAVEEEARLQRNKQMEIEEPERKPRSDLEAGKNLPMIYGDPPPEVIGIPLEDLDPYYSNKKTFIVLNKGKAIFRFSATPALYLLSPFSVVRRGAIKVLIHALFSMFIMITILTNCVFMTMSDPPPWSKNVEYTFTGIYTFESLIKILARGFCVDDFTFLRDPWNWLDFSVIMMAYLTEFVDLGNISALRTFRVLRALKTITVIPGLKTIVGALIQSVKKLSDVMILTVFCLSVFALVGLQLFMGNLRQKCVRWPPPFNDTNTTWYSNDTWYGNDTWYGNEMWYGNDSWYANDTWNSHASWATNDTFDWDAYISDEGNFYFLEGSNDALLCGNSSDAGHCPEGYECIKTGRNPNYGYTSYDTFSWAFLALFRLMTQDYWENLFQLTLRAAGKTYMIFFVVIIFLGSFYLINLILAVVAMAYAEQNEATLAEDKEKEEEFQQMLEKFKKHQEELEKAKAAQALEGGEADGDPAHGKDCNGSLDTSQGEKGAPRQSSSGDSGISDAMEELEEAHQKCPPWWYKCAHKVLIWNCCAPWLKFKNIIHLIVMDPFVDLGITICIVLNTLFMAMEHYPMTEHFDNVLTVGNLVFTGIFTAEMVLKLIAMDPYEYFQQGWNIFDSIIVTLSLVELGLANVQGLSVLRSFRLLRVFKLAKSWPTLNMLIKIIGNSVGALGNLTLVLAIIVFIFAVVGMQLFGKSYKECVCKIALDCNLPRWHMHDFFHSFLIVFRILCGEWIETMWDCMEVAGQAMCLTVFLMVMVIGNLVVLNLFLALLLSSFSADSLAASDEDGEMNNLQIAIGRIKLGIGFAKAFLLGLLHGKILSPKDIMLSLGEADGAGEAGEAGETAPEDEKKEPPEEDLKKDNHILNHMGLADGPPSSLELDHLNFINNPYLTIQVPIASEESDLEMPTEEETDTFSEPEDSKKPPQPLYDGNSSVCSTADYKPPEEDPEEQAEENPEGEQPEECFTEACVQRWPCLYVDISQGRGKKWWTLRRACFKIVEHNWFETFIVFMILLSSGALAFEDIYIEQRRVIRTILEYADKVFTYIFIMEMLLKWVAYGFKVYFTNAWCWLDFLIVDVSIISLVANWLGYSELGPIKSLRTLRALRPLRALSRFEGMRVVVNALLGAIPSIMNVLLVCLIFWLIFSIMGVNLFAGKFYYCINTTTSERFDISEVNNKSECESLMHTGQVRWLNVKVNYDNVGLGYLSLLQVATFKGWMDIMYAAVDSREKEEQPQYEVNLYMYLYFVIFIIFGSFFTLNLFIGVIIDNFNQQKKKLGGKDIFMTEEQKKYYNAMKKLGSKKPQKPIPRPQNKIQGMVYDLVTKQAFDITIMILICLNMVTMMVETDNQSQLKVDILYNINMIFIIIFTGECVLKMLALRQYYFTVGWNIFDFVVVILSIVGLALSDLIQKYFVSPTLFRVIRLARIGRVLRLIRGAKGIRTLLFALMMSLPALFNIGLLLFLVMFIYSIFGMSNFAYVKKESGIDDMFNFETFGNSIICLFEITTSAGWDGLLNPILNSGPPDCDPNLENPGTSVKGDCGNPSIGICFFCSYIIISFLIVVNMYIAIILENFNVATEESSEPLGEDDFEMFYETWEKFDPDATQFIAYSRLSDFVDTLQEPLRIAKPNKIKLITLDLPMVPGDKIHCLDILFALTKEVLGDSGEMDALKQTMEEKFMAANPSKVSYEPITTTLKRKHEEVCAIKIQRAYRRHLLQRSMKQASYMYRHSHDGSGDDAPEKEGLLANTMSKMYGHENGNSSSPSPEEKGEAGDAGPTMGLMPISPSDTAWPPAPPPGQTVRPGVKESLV
The experiment can be described thus: Whole-cell voltage-clamp of heterologously expressed human skeletal muscle sodium channels in HEK 293 cells. It is filed as cell-based. Particulars: for time constant of channel inactivation τh: 40 ms steps −100 mV to 0 mV, control 0.43±0.08 ms; for frequency-dependent block: additional fall relative to the first pulse: 100 Hz train, −100 mV to 0 mV. From the text:
The sodium channel blocking potency effects of different phenol derivatives with methyl and halogen substituents have been studied on heterologously expressed human skeletal muscle sodium channels. The phenol derivatives encompassed by formula (I) are either commercially available or can be synthesized by conventional standard laboratory methods.
Wild type α-subunits of human muscle sodium channels were heterologously expressed in human embryonic kidney (HEK 293) cells, a stable cell line since […] (American Tissue Culture Collection CRL 1573). Transfection was performed using calcium phosphate precipitation (Graham & Van der Eb, Virology, 52 (1973) 456-467). Permanent expression was achieved by selection for resistance to the aminoglycoside antibiotic geneticin G418 (Life Technology, Eggenstein, Germany) (Mitotic et al., J. Physiol., 478 (1994) 395-402). Successful channel expression was verified electrophysiologically. The clone has been used in several investigations (Haeseler et al.,Br. J. Pharmacol., 128 (1999) 1259-67; Haeseler et al., Br. J. Pharmacol. 130 (2000) 1321-1330; Mitrovic et al., ibid.).
3,5-dimethyl-4-chlorophenol (according to the invention) and 3-methylphenol (not according to the invention) were purchased from Sigma Chemicals, Deisenhofen, Germany; 4-chloro-2-methylphenol (not according to the invention) and 4-chlorophenol (not according to the invention) were from FLUKA, Deisenhofen, Germany. 3,5-Dimethyl-4-chlorophenol was prepared as a 1 M stock solution in methanol; 4-chloro-2-methylphenol, 4-chlorophenol, and 3-methylphenol were dissolved directly in the bath solution immediately before the experiments. Concentrations were calculated from the amount injected into the glass vials. Drug-containing solutions were protected from light and were vigorously vortexed for 60 min. The solution was applied via a glass polytetrafluoroethylene perfusion system and a stainless steel superfusion pipette. The bath solution contained (mM) NaCl 140, MgCl2 1.0, KCl 4.0, CaCl2 2.0, Hepes 5.0, dextrose 5.0. Patch electrodes contained (mM) […] 130, MgCl2 2.0, EGTA 5.0, Hepes 10. All solutions were adjusted to 290 mosm/l by the addition of mannitol and to pH 7.4 by the addition of CsOH.
Standard whole-cell voltage-clamp experiments (Hamill et al., Pfuegers Arch., 391 (1981) 85-100) were performed at 20° C. Each experiment consisted of test recordings with the drug present at only one concentration, and of drug-free control recordings before and after the test. Each whole-cell patch was exposed to one test concentration only. At least four experiments were performed at each concentration. The amount of the diluent methanol corresponding to the test concentration of 3,5-dimethyl-4-chlorophenol was added to the control solution. Patched cells were lifted into the visible stream of either bath solution or test solution, applied via a two-channel superfusion pipette close to the cell. To ensure adequate adjustment of the application device, one test experiment in distilled water reducing inward sodium current to zero was performed every 6-10 experiments.
For data acquisition and further analysis we used the EPC9 digitally-controlled amplifier in combination with Pulse and Pulse Fit software (HEKA Electronics, Lambrecht, Germany). The EPC9 provides automatic subtraction of capacitive and leakage currents by means of a prepulse protocol. The data were filtered at 10 kHz and digitized at 20 μs per point. Input resistance of the patch pipettes was at 1.8-2.5 MΩ. Only small cells with capacitances of 9-15 pF were used; residual series resistance (after 50% compensation) was 1.2-2.5 MΩ; experiments with a rise in series resistance were rejected. The time constant of the voltage settling within the membrane (residual series resistance×cell capacitance) was less than 35 μs. […]

Experiment [2] concerns the target heterologously expressed muscle sodium channels (Homo sapiens, UniProt P35499). The following applies: −100 mV; Fan et al. 1996; read-out: IC50 for block of heterologously expressed muscle sodium channels at −100 mV; cited from earlier work.
[3] abbreviates: IC50 for block of inward sodium current at a holding potential of −150 mV, holding potential −150 mV, 10 ms pulse to 0 mV.
[4] abbreviates: IC50 for block of sodium currents on depolarization from -100 mV to 0 mV, holding potential −100 mV, test pulse to 0 mV.

heterologously expressed muscle sodium channels, sequence (P35499 whole entry): as above

Turning to `Cc1cc(O)cc(C)c1Cl` [3,5-dimethyl-4-chlorophenol], the “time constant of channel inactivation τh” value in experiment [1] (50 μM drug) was 0.27 ± 0.02 ms. Further, the “frequency-dependent block: additional fall relative to the first pulse” value in experiment [1] (300 μM drug) was 17±5%. For the same compound, in experiment [1] (derived from drug-induced shifts in steady-state availability curves, read-out: KD for the fast-inactivated state), the Kd was 14 µM. In addition, the IC50 in experiment [1] (holding potential −100 mV, test pulse to 0 mV, read-out: IC50 for block of sodium currents on depolarization from -100 mV to 0 mV) was 150 µM; in experiment [1] (holding potential −150 mV, 10 ms pulse to 0 mV, read-out: IC50 for block of inward sodium current at a holding potential of −150 mV), 162 µM.

In the case of `Cc1cccc(O)c1` [3-methylphenol], the “time constant of channel inactivation τh” value in experiment [1] (1000 μM drug) was 0.30 ± 0.08 ms. Further, the “frequency-dependent block: additional fall relative to the first pulse” value in experiment [1] (3000 μM drug) worked out at 8±2%. The IC50 in experiment [1] (setting [3]) stood at 2400 µM; in experiment [1] (setting [4]), 2160 µM.

For `Cc1cc(Cl)ccc1O` [4-chloro-2-methylphenol], in experiment [1] (100 μM drug), the “time constant of channel inactivation τh” value is 0.27 ± 0.05 ms. In addition, in experiment [1] (500 μM drug), the “frequency-dependent block: additional fall relative to the first pulse” value turned out to be 16±5%. For the same compound, the IC50 in experiment [1] (setting [3]) stood at 316 µM; in experiment [1] (setting [4]), 268 µM.

`Oc1ccc(Cl)cc1` [4-chlorophenol]: in experiment [1] (500 μM drug), the “time constant of channel inactivation τh” value came out at 0.23 ± 0.03 ms. Besides, the “frequency-dependent block: additional fall relative to the first pulse” value in experiment [1] (1000 μM drug) came to 13±2%. In addition, the IC50 is 751 µM in experiment [1] (setting [3]) and 666 µM in experiment [1] (setting [4]).

Take `CCN(CC)CC(=O)Nc1c(C)cccc1C` [lidocaine, 2-diethylamino-2′,6′-dimethylacetanilide]: the IC50 in experiment [2] is 500 µM.
